The assay can be described thus: Lewis acidity: reaction rate constant of CoTPP and oxygen in the presence of a Lewis acid. The assay is classed as physicochemical. As to the method: Acetonitrile (MeCN) containing cobalt tetraphenylporphyrin (CoTPP), saturated O2, and a substance to be measured for the Lewis acidity (which is, for example, a cation of metal or the like and is represented by M^n+ in the following reaction scheme (A)) in the following reaction scheme (A) is measured for a change in an ultraviolet-visible absorption spectrum at room temperature. From the obtained reaction rate constant (kcat), the ΔE value (eV) as an index of the Lewis acidity can be calculated. […] The Lewis acidity of an organic compound can also be estimated from an energy level of the lowest unoccupied molecular orbital (LUMO) calculated by quantum chemical calculation.
Examples of the reaction rate constant of CoTPP and oxygen in the presence of a Lewis acid, which is an index of the Lewis acidity measured (calculated) by the above measurement method, are shown below. In the following Table 1, numerical values represented by “kcat, M^−2s^−1” are CoTPP and oxygen in the presence of a Lewis acid. The 5 numerical value represented by “LUMO, eV” is an energy level of LUMO.

Where [1] appears, read: CoTPP and oxygen in MeCN, room temperature.

Like-named read-outs stand apart in the source and are kept apart here.

On to Benzethonium chloride, for which the kcat under setting [1] was 0.24 M^−2s^−1. In the case of Benzalkonium chloride, under setting [1], the kcat is listed as 0.18 M^−2s^−1.

As to `CCCC[N+](CCCC)(CCCC)CCCC.F[P-](F)(F)(F)(F)F` [Tetrabutylammonium hexafluorophosphate], the kcat is greater than 0.1 M^−2s^−1.

The values above are taken from patent publication US20240349718A1, “COMPOSITION” (priority 2021, published 2024).
